Data on seven molecules can be found in ChEMBL document CHEMBL1130293, “Studies on the active conformation of the NK1 antagonist CGP 49823. Part 21. Fluoro-olefin analogs of tertiary amide rotamers” (Bioorg Med Chem Lett, 1997).

What is called IC50 is the concentration that inhibits the measured activity by half. High values mean lower potency, low ones higher potency.

Chain of Substance-P receptor (P25103 whole entry): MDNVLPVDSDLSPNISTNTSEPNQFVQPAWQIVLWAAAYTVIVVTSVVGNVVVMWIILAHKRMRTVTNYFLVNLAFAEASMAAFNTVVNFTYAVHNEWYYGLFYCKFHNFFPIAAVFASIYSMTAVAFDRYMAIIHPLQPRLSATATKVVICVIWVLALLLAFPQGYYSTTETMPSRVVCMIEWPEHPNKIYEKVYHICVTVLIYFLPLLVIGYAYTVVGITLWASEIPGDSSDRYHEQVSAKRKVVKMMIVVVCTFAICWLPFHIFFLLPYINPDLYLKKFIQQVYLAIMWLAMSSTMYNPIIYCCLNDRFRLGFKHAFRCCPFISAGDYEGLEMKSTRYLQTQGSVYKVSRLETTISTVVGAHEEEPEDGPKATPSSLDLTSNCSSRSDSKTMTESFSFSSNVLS

This experiment concerns the target Substance-P receptor (Homo sapiens, UniProt P25103). As to the kind of experiment: Tested for the binding affinity against neurokinin NK1 receptor.
In turn, `Cc1cc(C)cc(/C(F)=C2\CCC(NC(=O)c3ccnc4ccccc34)CC2Cc2ccccc2)c1` (racemic) displayed an IC50 of 620 nM.

With `Cc1cc(C)cc(/C(F)=C2\CC[C@@H](NC(=O)c3ccnc4ccccc34)C[C@@H]2Cc2ccccc2)c1`, the IC50 stood at 270 nM.

Turning to `Cc1cc(C)cc(/C(F)=C2/CC[C@H](NC(=O)c3ccnc4ccccc34)C[C@H]2Cc2ccccc2)c1`, the IC50 worked out at 380 nM. With `Cc1cc(C)cc(C(=O)N2CC[C@H](NC(=O)c3ccnc4ccccc34)C[C@H]2Cc2ccccc2)c1` the figure was 15 nM; with `Cc1cc(C)cc(/C(F)=C2/CCC(NC(=O)c3ccnc4ccccc34)CC2Cc2ccccc2)c1` (racemic), 710 nM; with `Cc1cc(C)cc(/C(F)=C2\CC[C@H](NC(=O)c3ccnc4ccccc34)C[C@H]2Cc2ccccc2)c1`, over 10000 nM. Turning to `Cc1cc(C)cc(/C(F)=C2/CC[C@@H](NC(=O)c3ccnc4ccccc34)C[C@@H]2Cc2ccccc2)c1`, the IC50 is over 10000 nM.
